Key:
[1] = tested on: Diet-Induced Obese (DIO) Mice; test: ipGTT (glucose tolerance) in diet-induced obese mice; format: in vivo, Mus Musculus; settings: for AUC Day −1: before dosing; for AUC Day −1 / AUC Day 19: in mM·min
[2] = tested on: Diet-Induced Obese (DIO) Mice; test: Fasting plasma glucose in diet-induced obese mice; format: in vivo, Mus Musculus
[3] = tested on: 3T3-L1 adipocytes; test: 2-Deoxyglucose uptake by 3T3-L1 adipocytes; format: cell-based; settings: for 2-Deoxyglucose uptake (Normalised: Vehicle with no insulin = 100%): DCP 10 μM
Method: Dichlorphenamide was added during serum-starvation. […] Insulin at 0, 0.5 and 10 nM was added for 20 min at 37° C. Uptake of 50 μM 2-deoxy glucose and 0.5 μCi 2-deoxy-[U-^3H] glucose (NEN, PerkinElmer Life Sciences) per well was measured over the final 10 min of insulin stimulation. […] Counts per minute (cpm) were measured by scintillator counter. […] The data is expressed as a mean±SEM. The statistical analysis was performed using an umpaired t-test (2-tailed).

[4] = tested on: obese Psammomys obesus (Israeli sand rats); test: Oral glucose tolerance test in obese Psammomys obesus; format: in vivo
Source text: The outbred Israeli sand rat, Psammomys obesus is a unique animal model for the study of obesity and diabetes. When housed under standard laboratory conditions, a proportion of Israeli sand rats become obese and develop type 2 diabetes spontaneously, without requiring high caloric feeding like the diet-induced obese mouse model, or as a consequence of a mutation in a particular gene as in the db/db mouse model. In this regard their evolution into a diabetic state closely resembles the environmental and polygenic human condition. Type 2 diabetic P. obesus are also profoundly insulin resistant, as measured by the area under the blood glucose curve during an oral glucose tolerance test (OGTT). In addition, a proportion of the animals remain lean and healthy under these same conditions, while others develop a range of intermediate phenotypes. This response is similar to that seen in human populations. Diabetic P. obesus are characterised by having elevated blood glucose levels. […] USA). […] Glucose was measured in whole blood using a YSI glucose analyser (Model #2300 STAT PLUS, Yellow Springs Instruments Co., Ohio, USA). The instrument takes a sample aliquot of 25 μl and is calibrated every 10 samples using 5.55 and 8.33 mmol/L glucose standards. The analyser utilises a probe fitted with a 3-layer membrane containing an immobilised enzyme. J3-D-glucose is oxidised by glucose oxidase, which is immobilised on a polycarbonate cellulose membrane, to form glucono-( )-lactone and hydrogen peroxide. The hydrogen peroxide in turn, is oxidised at the platinum anode, producing electrons. The electron flow is linearly proportional to the steady state hydrogen peroxide concentration and therefore to the concentration of glucose in the sample. Insulin levels were measured in plasma obtained after the […] heparin-coated tubes. Plasma insulin concentrations were determined using a commercially-available double antibody radio-immunoassay (RIA) kit. (Linco Research Inc., USA). […] Solutions were then incubated for 2 hours before adding 1 ml of sheep anti-guinea pig antibody (second antibody) and left to incubate again for 30 min at room temperature. Bound and free insulin were then separated by centrifugation at 3,500 g for 20 min (Beckman Centrifuge Model J6B, Beckman Instruments, […], Australia), leaving the bound insulin in a pellet at the bottom of the tube following aspiration of each sample. A gamma counter (Minaxi g Auto-gamma 5000 series. Packard Instrument Company, IL, USA) with a counting time of 1 min was then used to measure the radioactivity of the solid phase pellet.

[5] = Dichlorphenamide 50 mg/kg oral gavage
[6] = dichlorphenamide 20 mg/kg oral gavage
[7] = 20 mg/Kg DCP oral gavage, 0 min after glucose gavage
[8] = 20 mg/Kg DCP oral gavage, 15 min after glucose gavage
[9] = 20 mg/Kg DCP oral gavage, 30 min after glucose gavage
[10] = 20 mg/Kg DCP oral gavage, 45 min after glucose gavage
[11] = 20 mg/Kg DCP oral gavage, 60 min after glucose gavage
[12] = 20 mg/Kg DCP oral gavage, 90 min after glucose gavage

## NS(=O)(=O)c1cc(Cl)c(Cl)c(S(N)(=O)=O)c1 [Dichlorphenamide]
[1]
  effect on glucose tolerance of diet-induced obese mice: improves the glucose tolerance
[1]; Dichlorphenamide 20 mg/kg group
  AUC Day −1: 1350 ± 56
[1]; Dichlorphenamide 20 mg/kg oral gavage
  AUC Day 19: 832 ± 80
[1]; Dichlorphenamide 50 mg/kg group
  AUC Day −1: 1345 ± 73
[1]; [5]
  AUC Day 19 Treat vs Veh: −8%
  Delta AUC Day 19 vs Day −1: −32%^1
  AUC Day 19: 908 ± 38
[1]; [6]
  AUC Day 19 Treat vs Veh: −16%
  Delta AUC Day 19 vs Day −1: −38%^2
[2]
  effect on fasting plasma glucose levels of diet-induced obese mice: reduced the fasting plasma glucose levels
[2]; dichlorphenamide 20 mg/kg group, before dosing
  FPG Day −1: 10.05 ± 0.2 mM
[2]; [6]
  Delta FPG Treatment Day 14 vs Day −1: −17%^1
  Delta FPG Treatment vs Vehicle Day 14: −11%^2
  FPG Day 14: 8.35 ± 0.2 mM
[3]; 0.5 nM Insulin
  2-Deoxyglucose uptake (Normalised: Vehicle with no insulin = 100%): 1468 ± 400^2%
[3]; 10 nM Insulin
  2-Deoxyglucose uptake (Normalised: Vehicle with no insulin = 100%): 1826 ± 97 ^ %
[3]; no insulin (basal)
  2-Deoxyglucose uptake (Normalised: Vehicle with no insulin = 100%): 508 ± 57^1%
[3]; basal, 0.5 nM and 10 nM insulin
  effect on basal and insulin stimulated 2-deoxyglucose uptake: enhanced
[4]; [7]
  Plasma Glucose: 3.4 ± 0.2 mM
  Plasma Insulin: 48 ± 15 mU/ml
[4]; [8]
  Plasma Glucose: 5.4 ± 0.2 mM
  Plasma Insulin: 141 ± 21 mU/ml
[4]; [9]
  Plasma Glucose: 4.7 ± 0.4 mM
  Plasma Insulin: 149 ± 49 mU/ml
[4]; [10]
  Plasma Glucose: 5.1 ± 0.3 mM
  Plasma Insulin: 123 ± 39 mU/ml
[4]; [11]
  Plasma Glucose: 4.7 ± 0.4 mM
  Plasma Insulin: 202 ± 46 mU/ml
[4]; [12]
  Plasma Glucose: 4.3 ± 0.4 mM
  Plasma Insulin: 117 ± 22 mU/ml
[4]; 20 mg/Kg DCP oral gavage, OGTT 0-90 min
  Plasma Glucose AUC: 119 ± 16 mM·min
[4]; 20 mg/Kg DCP oral gavage, OGTT 0-90 min, listed as head prints (mM · min)
  Plasma Insulin AUC: 8,548 ± 2441
[4]; area under plasma glucose and plasma insulin curve
  effect on glucose tolerance in oral glucose tolerance test: increased the glucose tolerance
